Laboratory results reported in article PMC8308845, “Discovery of Novel Chemical Series of OXA-48 β-Lactamase Inhibitors by High-Throughput Screening” (Pharmaceuticals, 2021).
Converted amounts (≈) assume the structure as drawn.

Key:
[1] = test system: K. pneumoniae ATCC BAA-2524; test: MIC by broth microdilution, β-lactam-resistant strain producing OXA-48; format: cell-based, Klebsiella pneumoniae; details: Klebsiella pneumoniae, ATCCBAA2524, no β-lactam, BLI tested at 32 µg/mL, read-out: MIC, BLI alone
From the text: (§1) To evaluate the capability of restoring β-lactam susceptibility, the two most promising representatives of SC_2 (ID3) and SC_7 (ID2) were screened alone and in combination with ampicillin (AMP) and IMP against sensitive and resistant Gram-negative bacteria. Avibactam and tazobactam were also included in the MIC characterization as BLI reference compounds. Specifically, we used E. coli ATCC25922 as antibiotic-sensitive strain, while E. coli ATCC BAA-2523 and K. pneumoniae ATCC BAA-2524 as β-lactam-resistant bacteria, producing OXA-48 carbapenemase.
(§2) Test compounds and tazobactam were tested at 32 µg/mL, while avibactam was applied at 4 µg/mL. […] Both antibiotics were selected for the combination study as they can be hydrolyzed by the target OXA-48 enzyme.
(§3) MIC values were determined by the broth dilution method and interpreted using published guidelines described by Clinical and Laboratory Standards Institute (CLSI).
(§4) All BLIs were dissolved in 100% DMSO and they were tested at a fixed concentration of 32 µg/mL and 1% of DMSO final concentration. Avibactam was used as reference β-lactamase inhibitor. All antimicrobials were prepared in line with CLSI susceptibility testing standards. AMP (USP # 1033000; batch no. K1M493) was dissolved at 5.12 mg/mL, IMP (USP # 1337809; batch no. R038R0) and avibactam (Biochem # NXL 104; batch no. 20180726) were dissolved at 1.28 mg/mL in the respective solvents recommended by CLSI (2). Solutions at 4X the final concentrations of the test range were made in Cation adjusted Mueller-Hinton broth (CA-MHB, BD # 212322; batch no. 6117994; Expiry date: 29.02.2020) by serial dilutions, and then diluted 2-fold with CA-MHB (for antimicrobials alone), or with the BLIs/avibactam (for combinations of new/reference inhibitors and antimicrobials). Moreover, all BLIs were tested alone at a fixed concentration of 32 μg/mL. The final concentration of DMSO in the test tubes was 1% for each different combination.
(§5) 50 μL of each well were then transferred from the masterblock into 96-well plates to whom were then added 50 μL of the final inoculum. MIC tests were performed by broth microdilution in line with CLSI susceptibility testing standards. Bacterial inocula were prepared at ca. 1 × 10^6 CFU/mL by diluting 100-fold a 0.5 McFarland suspension in CA-MHB with TES (TREK Diagnostic Systems, Product code: T3462; Batch: 356347; Expiry date: 12-Jun-2019). 50 μL of antibacterial solutions at 2 × the final concentrations were diluted 2-fold with 50 μL of inoculum to give a final inoculum of ca. 5 × 10^5 CFU/mL and desired test concentrations of antibacterial agents. Test plates were incubated according to CLSI guidelines and read visually. MIC values corresponded to the first well with no visible growth.

HepG2 cells = test: Cytotoxicity assay (cell viability, alamarBlue); format: cell-based; details: 48 h incubation, dose response
Experimental: (§6) Based on the promising BLI profile of compound ID2, a preliminary in vitro ADMET assessment in terms of kinetic solubility and cytotoxicity was carried out. […] Also, it was tested for cell viability in dose response against HepG2 cells, following 48 h incubation time.
Compound ID2 was tested in cell viability assays with HepG2 cells. The viability of cultured cells was evaluated using alamarBlue staining as described by Nociari et al.. Concentration–response curves were prepared for each compound by testing eight concentrations in triplicate with three-fold dilutions starting from 100 µM to […]. After incubation for 48 h at 37 °C, the percentage of control activity was calculated by comparing the fluorescence reading in the presence of the test compound to that in the absence of a test compound (control). IC50 values were determined by non-linear regression analysis of the concentration–response curves. These parameters were obtained by Hill equation curve fitting. Chlorpromazine was used as a reference compound.

[2] = Aqueous solubility assay (PBS, pH 7.4); format: physicochemical; details: isotonic buffer pH 7.4, aqueous buffer, kinetic from dmso stock, buffered aqueous solution at pH 7.4, 200 μM nominal, 2% DMSO, room temperature
Experimental: as §6
Compound was dissolved in DMSO as stock solution and then added to isotonic buffer (pH 7.4) at a concentration of 200 μM (2% DMSO final concentration). After a 24 h incubation under shaking at room temperature, dissolved compound is measured by a chromatographic procedure with photodiode array detection. Metoprolol tartrate, rifampicin, ketoconazole, phenytoin, haloperidol, simvastatin, diethylstilbestrol, and tamoxifen were used as reference compounds for different solubility degrees.

E. coli ATCC25922 = test: MIC by broth microdilution, antibiotic-sensitive strain; format: cell-based; details: Escherichia coli, no β-lactam, BLI tested at 32 µg/mL, read-out: MIC, BLI alone
From the text: as §1, §2, §3, §4, §5

Compound | MIC [1] [µg/mL] | cytotoxicity (no sign of toxicity up to the highest tested concentration) (HepG2 cells) [µM] | solubility kinetic at 24 h [2] [µM] | MIC (E. coli ATCC25922) [µg/mL]
CCc1ccc(-c2n[nH]c3nc(-c4ccc(C(=O)O)cc4)cc(C(=O)O)c23)cc1 [ID2] | > 32 | > 100 | 179 (≈ 69.5 µg/mL) | > 32
C[C@]1(Cn2ccnn2)[C@H](C(=O)O)N2C(=O)C[C@H]2S1(=O)=O [tazobactam, reference compound] | > 32 |  |  | 
